Measurements from patent publication US5668152A, “Protein kinase C inhibitors” (priority 1995, dated 1997).
Read-outs that look alike come from different tables or passages of the source.

Experiments:
protein kinase C alpha = protein kinase C alpha (Homo sapiens, UniProt P17252); assay: PKC Enzyme assay, alpha isozyme; format: biochemical
Protocol: (§1) PKC enzymes=alpha, beta I, beta II, gamma, delta, epsilon, eta and zeta.
(§2) Assay components in a total volume of 250 μL are the following:
(§3) Vesicles consisting of 120 μg/mL phosphatidylserine (Avanti Polar Lipids) and sufficient diacylglycerol (Avanti Polar Lipids) to activate the enzyme to maximum activity in 20 mM HEPES buffer (Sigma, St. Louis, Mo.), pH 7.5, 940 μM calcium chloride (Sigma, St. Louis, Mo.) for assaying the alpha, beta I, beta II and gamma enzyme only, 1 mM EGTA for all the enzymes, 10 mM magnesium chloride (Sigma, St. Louis, Mo.) and 30 μM (gamma-32P) ATP (DuPont). For all the enzymes either histone type HL (Worthington) or myelin basic protein is used as substrate. The assay is started by addition of protein kinase C enzyme incubated at 30° C. for 10 minutes and stopped by adding 0.5 mL of cold trichloroacetic acid (Amresco) followed by 100 μL of 1 mg/mL bovine serum albumin (Sigma, St. Louis, Mo.). The precipitate is collected by vacuum filtration on glass fiber filters employing a TOMTEC™ filtration system and quantified by counting in a beta scintillation counter.

protein kinase C beta-1 = protein kinase C beta-1 (Homo sapiens, UniProt P05771); assay: PKC Enzyme assay, beta I isozyme; format: biochemical
Protocol: as §1, §2, §3

protein kinase C beta-2 = protein kinase C beta-2 (Homo sapiens, UniProt P05771); assay: PKC Enzyme assay, beta II isozyme; format: biochemical
Protocol: as §1, §2, §3

protein kinase C gamma = protein kinase C gamma (Homo sapiens, UniProt P05129); assay: PKC Enzyme assay, gamma isozyme; format: biochemical
Protocol: as §1, §2, §3

protein kinase C delta = protein kinase C delta (Homo sapiens, UniProt Q05655); assay: biochemical
Protocol: as §1, §2, §3

protein kinase C epsilon = biological target: T1, protein kinase C epsilon (Homo sapiens, UniProt Q02156); assay: PKC Enzyme assay, epsilon isozyme; format: biochemical
T1 sequence (Q02156 1-737): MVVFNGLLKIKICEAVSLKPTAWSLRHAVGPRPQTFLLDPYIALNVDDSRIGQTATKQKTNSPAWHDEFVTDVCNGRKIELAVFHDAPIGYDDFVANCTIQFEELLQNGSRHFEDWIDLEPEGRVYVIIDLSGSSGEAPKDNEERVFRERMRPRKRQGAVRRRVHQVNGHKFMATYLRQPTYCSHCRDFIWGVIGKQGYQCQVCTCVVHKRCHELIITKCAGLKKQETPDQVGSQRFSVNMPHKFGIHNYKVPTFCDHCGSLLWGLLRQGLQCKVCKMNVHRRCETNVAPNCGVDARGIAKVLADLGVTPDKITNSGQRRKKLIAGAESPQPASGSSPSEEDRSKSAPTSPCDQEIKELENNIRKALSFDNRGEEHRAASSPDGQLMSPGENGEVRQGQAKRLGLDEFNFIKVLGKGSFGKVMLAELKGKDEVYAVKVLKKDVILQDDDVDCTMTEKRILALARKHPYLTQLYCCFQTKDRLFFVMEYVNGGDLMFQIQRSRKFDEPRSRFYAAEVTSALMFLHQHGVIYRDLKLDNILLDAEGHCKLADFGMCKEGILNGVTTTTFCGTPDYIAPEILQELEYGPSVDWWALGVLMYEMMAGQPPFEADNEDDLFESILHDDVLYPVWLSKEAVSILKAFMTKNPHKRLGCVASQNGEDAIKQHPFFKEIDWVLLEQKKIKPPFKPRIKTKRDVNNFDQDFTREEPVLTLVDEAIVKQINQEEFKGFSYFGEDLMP
Protocol: as §1, §2, §3

protein kinase C zeta = biological target: T2, protein kinase C zeta (Homo sapiens, UniProt Q05513); assay: PKC Enzyme assay, zeta isozyme; format: biochemical
T2 sequence (Q05513 1-592): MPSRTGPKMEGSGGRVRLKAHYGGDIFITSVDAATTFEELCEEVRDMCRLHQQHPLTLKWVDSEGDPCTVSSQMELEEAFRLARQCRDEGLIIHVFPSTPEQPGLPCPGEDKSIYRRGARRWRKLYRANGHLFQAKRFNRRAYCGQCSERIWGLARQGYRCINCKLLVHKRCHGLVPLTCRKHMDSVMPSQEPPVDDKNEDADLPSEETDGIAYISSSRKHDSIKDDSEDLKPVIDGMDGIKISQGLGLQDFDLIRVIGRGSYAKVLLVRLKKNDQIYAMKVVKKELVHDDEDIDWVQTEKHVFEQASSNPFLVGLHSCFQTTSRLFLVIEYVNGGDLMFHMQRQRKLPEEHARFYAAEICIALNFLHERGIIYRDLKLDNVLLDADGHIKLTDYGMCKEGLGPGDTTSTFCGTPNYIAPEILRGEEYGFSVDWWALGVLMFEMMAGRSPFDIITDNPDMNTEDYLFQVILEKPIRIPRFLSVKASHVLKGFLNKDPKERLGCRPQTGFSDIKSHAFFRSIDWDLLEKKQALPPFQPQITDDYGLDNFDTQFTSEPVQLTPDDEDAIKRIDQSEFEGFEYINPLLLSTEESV
Protocol: as §1, §2, §3

protein kinase C eta = protein kinase C eta (Homo sapiens, UniProt P24723); assay: PKC Enzyme assay, eta isozyme; format: biochemical
Protocol: as §1, §2, §3

[1] = PKC alpha, 30 μM ATP, 30° C., 10 minutes, read-out: IC50 α
[2] = PKC beta-1, 30 μM ATP, 30° C., 10 minutes, read-out: IC50 β1
[3] = PKC beta-2, 30 μM ATP, 30° C., 10 minutes, read-out: IC50 β2
[4] = PKC gamma, 30 μM ATP, 30° C., 10 minutes, read-out: IC50 γ
[5] = PKC delta, 30 μM ATP, 30° C., 10 minutes, read-out: IC50 δ
[6] = PKC epsilon, 30 μM ATP, 30° C., 10 minutes, read-out: IC50 ε
[7] = PKC zeta, 30 μM ATP, 30° C., 10 minutes, read-out: IC50 ζ
[8] = PKC eta, 30 μM ATP, 30° C., 10 minutes, read-out: IC50 η

Chain of protein kinase C delta (Q05655 whole entry): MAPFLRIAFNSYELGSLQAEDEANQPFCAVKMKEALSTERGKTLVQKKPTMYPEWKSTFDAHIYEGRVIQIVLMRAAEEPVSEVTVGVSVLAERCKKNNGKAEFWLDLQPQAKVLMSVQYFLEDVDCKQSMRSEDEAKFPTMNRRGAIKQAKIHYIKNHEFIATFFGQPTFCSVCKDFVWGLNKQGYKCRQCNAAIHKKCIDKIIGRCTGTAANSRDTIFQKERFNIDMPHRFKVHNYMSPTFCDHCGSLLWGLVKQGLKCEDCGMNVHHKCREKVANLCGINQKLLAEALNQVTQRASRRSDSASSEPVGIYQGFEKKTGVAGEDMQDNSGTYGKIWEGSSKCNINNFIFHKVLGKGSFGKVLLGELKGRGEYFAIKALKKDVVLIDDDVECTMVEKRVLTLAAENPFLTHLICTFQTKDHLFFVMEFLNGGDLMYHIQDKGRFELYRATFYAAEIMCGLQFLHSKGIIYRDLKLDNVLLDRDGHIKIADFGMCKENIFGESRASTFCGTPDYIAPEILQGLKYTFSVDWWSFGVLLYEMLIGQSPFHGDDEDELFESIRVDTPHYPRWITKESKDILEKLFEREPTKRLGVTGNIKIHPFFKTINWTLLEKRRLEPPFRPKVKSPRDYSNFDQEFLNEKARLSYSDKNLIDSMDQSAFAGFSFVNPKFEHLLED
Chain of protein kinase C beta-2 (P05771 1-673 isoform P05771-2): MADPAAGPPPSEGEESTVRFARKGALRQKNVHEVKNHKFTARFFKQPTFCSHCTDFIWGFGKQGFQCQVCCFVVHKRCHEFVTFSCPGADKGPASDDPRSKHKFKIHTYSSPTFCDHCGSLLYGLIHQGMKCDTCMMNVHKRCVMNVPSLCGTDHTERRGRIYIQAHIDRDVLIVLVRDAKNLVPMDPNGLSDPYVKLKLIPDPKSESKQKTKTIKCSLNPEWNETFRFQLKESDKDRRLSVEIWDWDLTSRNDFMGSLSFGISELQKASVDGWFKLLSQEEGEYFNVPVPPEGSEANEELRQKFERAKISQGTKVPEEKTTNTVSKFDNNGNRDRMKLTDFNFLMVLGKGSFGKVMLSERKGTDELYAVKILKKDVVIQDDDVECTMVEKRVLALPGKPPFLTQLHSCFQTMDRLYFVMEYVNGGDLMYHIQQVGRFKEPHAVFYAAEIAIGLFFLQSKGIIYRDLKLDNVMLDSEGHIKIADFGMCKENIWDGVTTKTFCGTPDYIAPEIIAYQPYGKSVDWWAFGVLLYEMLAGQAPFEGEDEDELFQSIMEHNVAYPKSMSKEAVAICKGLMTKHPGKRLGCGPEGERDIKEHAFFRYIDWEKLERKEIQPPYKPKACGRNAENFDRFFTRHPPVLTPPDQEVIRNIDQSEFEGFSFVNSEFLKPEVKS
Chain of protein kinase C beta-1 (P05771 whole entry): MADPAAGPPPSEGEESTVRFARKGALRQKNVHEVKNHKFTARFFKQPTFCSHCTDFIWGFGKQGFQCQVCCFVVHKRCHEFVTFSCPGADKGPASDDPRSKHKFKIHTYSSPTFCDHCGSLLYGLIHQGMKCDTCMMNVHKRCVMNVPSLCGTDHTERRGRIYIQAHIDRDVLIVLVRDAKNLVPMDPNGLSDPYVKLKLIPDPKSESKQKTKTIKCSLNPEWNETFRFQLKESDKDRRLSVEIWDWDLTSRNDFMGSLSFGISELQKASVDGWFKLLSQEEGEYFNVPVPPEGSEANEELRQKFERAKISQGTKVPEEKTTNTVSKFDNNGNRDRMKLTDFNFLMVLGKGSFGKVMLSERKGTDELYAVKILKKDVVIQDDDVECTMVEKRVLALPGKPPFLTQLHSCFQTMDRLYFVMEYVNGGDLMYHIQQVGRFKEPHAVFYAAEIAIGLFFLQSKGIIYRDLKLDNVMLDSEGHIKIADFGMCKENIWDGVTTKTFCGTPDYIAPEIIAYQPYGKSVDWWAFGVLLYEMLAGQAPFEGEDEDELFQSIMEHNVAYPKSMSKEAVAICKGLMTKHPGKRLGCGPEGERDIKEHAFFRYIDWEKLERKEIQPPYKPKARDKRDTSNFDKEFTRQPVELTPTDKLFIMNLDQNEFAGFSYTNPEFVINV
Chain of protein kinase C eta (P24723 whole entry): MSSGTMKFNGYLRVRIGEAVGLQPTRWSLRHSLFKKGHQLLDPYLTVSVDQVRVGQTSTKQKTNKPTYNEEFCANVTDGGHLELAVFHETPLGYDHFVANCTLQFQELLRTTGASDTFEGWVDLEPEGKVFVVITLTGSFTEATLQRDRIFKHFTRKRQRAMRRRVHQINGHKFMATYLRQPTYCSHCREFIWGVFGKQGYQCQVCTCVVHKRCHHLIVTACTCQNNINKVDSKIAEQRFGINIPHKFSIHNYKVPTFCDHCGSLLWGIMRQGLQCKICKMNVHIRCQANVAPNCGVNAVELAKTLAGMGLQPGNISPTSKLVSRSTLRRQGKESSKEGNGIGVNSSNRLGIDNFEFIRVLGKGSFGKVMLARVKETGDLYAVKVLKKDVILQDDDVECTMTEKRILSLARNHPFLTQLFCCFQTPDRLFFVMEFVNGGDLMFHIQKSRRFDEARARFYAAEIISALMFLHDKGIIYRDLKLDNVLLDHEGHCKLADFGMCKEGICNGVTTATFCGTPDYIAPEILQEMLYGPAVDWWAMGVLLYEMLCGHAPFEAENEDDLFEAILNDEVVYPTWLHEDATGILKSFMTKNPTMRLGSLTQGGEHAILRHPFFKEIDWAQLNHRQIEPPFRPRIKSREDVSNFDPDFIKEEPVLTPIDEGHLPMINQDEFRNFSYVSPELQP

SMILES	IC50 (protein kinase C alpha; [1])	IC50 (protein kinase C beta-1; [2])	IC50 (protein kinase C beta-2; [3])	IC50 (protein kinase C gamma; [4])	IC50 (protein kinase C delta; [5])	IC50 (protein kinase C epsilon; [6])	IC50 (protein kinase C zeta; [7])	IC50 (protein kinase C eta; [8])	IC50 (protein kinase C alpha)	IC50 (protein kinase C beta-1)	IC50 (protein kinase C beta-2)	IC50 (protein kinase C gamma)	IC50 (protein kinase C delta)	IC50 (protein kinase C epsilon)	IC50 (protein kinase C zeta)	IC50 (protein kinase C eta)
CC(C)N1CCC(n2cc(C3=C(c4cn(C)c5ccccc45)C(=O)NC3=O)c3ccccc32)CC1 [Example 8, 3-[1-(1-i-Propyl-piperidin-4-yl)-1H-indol-3-yl]-4-(1-methyl-1H-indol-3-yl)-pyrrole-2,5-dione]	340 nM	19 nM	26 nM	1300 nM	970 nM	390 nM	9300 nM	130 nM	–	–	–	–	–	–	–	–
Cn1cc(C2=C(c3c4n(c5ccccc35)CCC(CO)C4)C(=O)NC2=O)c2ccccc21 (centres unmarked) [Example 9, 3-[8-(Hydroxymethyl)-6,7,8,9-tetrahydropyrido[1,2-a]indol-10-yl]-4-(1-methyl-3-indolyl)-1H-pyrrole-2,5 dione]	270 nM	14 nM	6.1 nM	1500 nM	440 nM	3800 nM	9260 nM	400 nM	–	–	–	–	–	–	–	–
CN(C)CCCn1cc(C2=C(c3c[nH]c4ccccc34)C(=O)NC2=O)c2ccccc21 [Example 10]	–	–	–	–	–	–	–	–	660 nM	50 nM	50 nM	1040 nM	920 nM	930 nM	23000 nM	90 nM
O=C1NC(=O)C(c2cn(CCCO)c3ccccc23)=C1c1c[nH]c2ccccc12 [Example 11]	450 nM	39 nM	46 nM	1100 nM	410 nM	680 nM	16000 nM	100 nM	–	–	–	–	–	–	–	–
Cn1cc(C2=C(c3c[nH]c4ccccc34)C(=O)NC2=O)c2ccccc21 [Example 12]	1210 nM	81 nM	86 nM	1250 nM	1000 nM	900 nM	8000 nM	520 nM	–	–	–	–	–	–	–	–
O=C1NC(=O)C(c2cn(Cc3ccccc3)c3ccccc23)=C1c1c[nH]c2ccccc12 [Example 14]	13500 nM	1150 nM	1140 nM	25000 nM	8800 nM	30000 nM	34000 nM	4500 nM	–	–	–	–	–	–	–	–
Cc1c(C2=C(c3cn(CN(C)C)c4ccccc34)C(=O)NC2=O)c2ccccc2n1CCCN(C)C [Example 15]	4900 nM	140 nM	100 nM	4000 nM	3400 nM	5500 nM	37000 nM	1300 nM	–	–	–	–	–	–	–	–
Cc1c(C2=C(c3c(C)n(CN(C)C)c4ccccc34)C(=O)NC2=O)c2ccccc2n1CCCN(C)C [Example 16]	39000 nM	700 nM	600 nM	9200 nM	8000 nM	10000 nM	40000 nM	5600 nM	–	–	–	–	–	–	–	–
CC(=O)N1CCC(n2cc(C3=C(c4cn(C)c5ccccc45)C(=O)NC3=O)c3ccccc32)CC1 [Example 37, 3-(1-(1-Acetyl-piperidin-4-yl]-indol-3-yl)-4-(1-methyl-indol-3-yl)-pyrrole-2,5-dione]	300 nM	9 nM	20 nM	1000 nM	400 nM	400 nM	20000 nM	100 nM	–	–	–	–	–	–	–	–
CCOC(=O)CN1CCC(n2cc(C3=C(c4cn(C)c5ccccc45)C(=O)NC3=O)c3ccccc32)CC1 [Example 38]	1000 nM	50 nM	50 nM	5000 nM	3000 nM	400 nM	> 100000 nM	2000 nM	–	–	–	–	–	–	–	–
Cn1cc(C2=C(c3cn(C4CCN(CC5CC5)CC4)c4ccccc34)C(=O)NC2=O)c2ccccc21 [Example 39, 3-[1-N-(1-N-(Cyclopropylmethylene)-piperidin-4-yl)-indol-3-yl]-4-(1-N-(methyl)-indol-3-yl)-1H-pyrrole-2,5-dione]	300 nM	30 nM	10 nM	400 nM	400 nM	900 nM	9000 nM	50 nM	–	–	–	–	–	–	–	–
CN(C)CCCN1CCC(n2cc(C3=C(c4cn(C)c5ccccc45)C(=O)NC3=O)c3ccccc32)CC1 [Example 41, 3-{1-[1-N-(3-N,N-(Dimethylamino)propyl)-piperidin-4-yl]-indol-3-yl}-4-(1-methyl-indol-3-yl)-1H-pyrrole-2,5-dione]	3000 nM	200 nM	100 nM	4000 nM	4000 nM	1000 nM	15000 nM	2000 nM	–	–	–	–	–	–	–	–
CN1CCC(n2cc(C3=C(c4cn(C)c5ccccc45)C(=O)NC3=O)c3ccccc32)CC1 [Example 42, 3-[1-(1-Methyl-piperidin-4-yl)-indol-3-yl]-4-(1-methyl-indol-3-yl)-1H-pyrrole-2,5-dione]	400 nM	20 nM	10 nM	500 nM	400 nM	400 nM	4000 nM	50 nM	–	–	–	–	–	–	–	–
